Legend:
Format in all cases: cell-based, human
[1] = test system: dermal fibroblasts spheroids (DFSs); experiment: On-chip screening of active ingredients on DFSs: collagen type I and fibronectin secretion (ELISA of culture supernatant)
Procedure: The microfluidic device was first, purged for 20 min with fluorinated oil with 0.5 wt % 008-fluorosurfactant (RAN Biotechnologies, USA) at a flow rate of 0.1 mL/hr. Subsequently, the supplying channel and the microwells were filled with the hDFs-in-EKGel I suspension with a cell density of 4.9×10^5 cells/μL. After that, the cell suspension in the supplying channel was replaced with fluorinated oil with 0.5 wt % surfactants. The inlet and outlet of the microfluidics quadruplet device were then sealed with PCR sealing tape and incubated at 37° C. for 2 hours, allowing EKGel to gel. Subsequently, the complete culture medium was continuously flowed through the supplying channel at the flow rate of 0.025 mL/hr. On the second day (Day 1), hDFs-laden EKGel droplets transformed into dermal fibroblasts spheroids (DFSs). Due to the contraction of DFSs, free space was present in each microwell, which allowed the incorporation of a second layer. To introduce another layer of keratinocytes, the culture medium was replaced by fluorinated oil with 0.5 wt % surfactants.
(§1) To study the effect of vitamin C or retinol on DFSs or KDFSs, on Day 2 the complete culture medium was replaced with 1% FBS DMEM culture medium with 1% (v/v) penicillin/streptomycin containing 0, 20, or 100 μg/mL vitamin C. Retinol at concentrations of 0, 30, 45, 60 μM was dissolved in 1% FBS DMEM culture medium with 1% (v/v) penicillin/streptomycin and 0.1% dimethyl sulfoxide (DMSO). The culture supernatant was collected from the outlet every 24-hours for analysis.
The amount of procollagen type I and fibronectin synthesized by hDFs and released in the supernatant were quantified using two ELISA kits, namely, Procollagen Type I C-Peptide (PIP) ELISA kit (MK101, Takara Bio Inc.) and Fibronectin ELISA kit (MK115, Takara Bio Inc.). Procollagen type I was used as the indicator for the collagen type I synthesized from hDFs. To determine the amount of procollagen type I synthesized by the cells, 20 μL collected culture supernatant and 100 μL of the anti-PIP antibody-peroxidase (POD) were added into a 96-well microplate coated with anti-PIP antibody and incubated at 37° C. for 3 hours. To determine the amount of fibronectin synthesized by the cells, 100 μL of the supernatant was first, added to the antibody-coated 96-well microplate for 1 hour at 37° C., thus allowing the fibronectin in the supernatant to bond to the antibody-coated on the microplate.
The supernatant was then discarded, and the microplates were washed with 1×PBS (MK021, Takara Bio Inc.) three times. Subsequently, the captured fibronectin was tagged by adding 100 μL of anti-human fibronectin antibody-POD conjugate into the microplate and incubating it for another 1 hour at 37° C. Upon completion of the antibody-POD conjugate incubation for both assays, the liquid content in the microwells was discarded and the microwells were washed four times with 1×PBS. 100 μL substrate solution (solution of 3,3′,5,5′-tetramethylbenzidine) was then added to the wells and incubated at room temperature for 15 min. Subsequently, 100 μL stop solution (MK021, Takara Bio Inc.) was added to each well. After stopping the reaction between POD and substrate, the absorbance of the contents of each microwell at 450 nm was measured by the CLARIOstar plate reader.

[2] = test system: keratinocyte-dermal fibroblasts spheroids (KDFSs); experiment: Vitamin C screening on KDFSs: collagen type I and fibronectin secretion; conditions: 24-hour treatment; KDFSs from two lineages of dermal fibroblasts
Procedure: Keratinocytes were suspended in EKGel II precursor solution at a cell/gel mass ratio of 75:25. The keratinocytes-in-EKGel II suspension was then purged into the channel and filled the microwells. Consequently, the cell suspension in the supplying channel was washed away by fluorinated oil mixed with 0.5 wt % surfactants. The device was sealed and incubated at 37° C. for 1 hour. Finally, the complete culture medium was flowed to the microfluidic device at the flow rate of 0.025 mL/hr. On Day 2, keratinocytes aggregated and integrated with the hDF core to form layered skin spheroids, KDFSs.
To study the effect of vitamin C or retinol on DFSs or KDFSs, on Day 2 the complete culture medium was replaced with 1% FBS DMEM culture medium with 1% (v/v) penicillin/streptomycin containing 0, 20, or 100 μg/mL vitamin C. […]
The amount of procollagen type I and fibronectin synthesized by hDFs and released in the supernatant were quantified using two ELISA kits, namely, Procollagen Type I C-Peptide (PIP) ELISA kit (MK101, Takara Bio Inc.) and Fibronectin ELISA kit (MK115, Takara Bio Inc.). […]
The supernatant was then discarded, and the microplates were washed with 1×PBS (MK021, Takara Bio Inc.) three times. […] After stopping the reaction between POD and substrate, the absorbance of the contents of each microwell at 450 nm was measured by the CLARIOstar plate reader.

[3] = test system: dermal fibroblasts spheroids (DFSs); experiment: Immunofluorescence staining of collagen type I and fibronectin deposited in DFSs on the chip; conditions: 72-hour treatment, 100 μg/mL vs 0 μg/mL vitamin C
Procedure: as §1
The immunofluorescence staining on DFSs/KDFSs formed in the microfluidic device was conducted by flowing a series of solutions at a flow rate of 0.15 mL/hr into the supplying microchannel in the following order. First, 1× Hanks' Balanced Salt Solution (HBSS) was flowed into the device for 20 min to remove the cell culture medium. Subsequently, a 5% formalin solution in HBSS was flowed to fix the DFSs/DKFSs. Subsequently, the formalin was washed away by purging 0.1 M glycine in 1×HBSS for 60 min. To permeate the DFSs/KDFSs, 0.5% triton-X in 1×HBSS was flowed into the device for 30 min. Subsequently, an immunofluorescence (IF) solution (consisting of 0.05 wt % NaN3, 0.1 wt % bovine serum albumin, 0.2 vol. % triton-X-100 and 0.05 vol. % Tween-20 in HBSS) was flowed to the microfluidics for 45 min. Primary blocking solution (10 wt % goat serum in IF washing solution) was then flowed for 60 min. […]

[4] = 100 μg/mL vitamin C for 24-hours

Row | SMILES | effect on fibronectin production in DFSs ([1]; retinol 30 μM, preliminary study) | effect on fibronectin production in DFSs ([1]; retinol 45 μM, preliminary study) | effect of retinol on DFSs (fibronectin production) ([1]; retinol 60 μM, longer incubation time (day 5), preliminary study) | effect on collagen expression in DFSs ([1]; retinol 30, 45, 60 μM, preliminary study) | collagen type I secretion from DFSs [1, 4] | fibronectin secretion from DFSs [1, 4] | concentration required to stimulate the production of collagen and fibronectin in KDFSs compared to DFSs [2] | deposition of collagen type I in DFSs [3] | deposition of fibronectin in DFSs [3]
1 | CC1=C(/C=C/C(C)=C/C=C/C(C)=C/CO)C(C)(C)CCC1 [retinol] | positive and significant effect | positive and significant effect | negative effect | significant positive effect of retinol was not yet observed |  |  |  |  | 
2 | O=C1O[C@H]([C@@H](O)CO)C(O)=C1O [vitamin C] |  |  |  |  | increased level | increased level | a higher concentration of vitamin C was required | increased | increased

— patent US20240002789A1, “SKIN SPHEROIDS AND PROCESS OF PREPARATION AND USE THEREOF” (The Governing Council of The University of Toronto, priority 2020, published 2024)
